# Measured values published in US20230201240A1, “TREATMENT OF ADVANCED METASTATIC CANCER” (Can-Fite Biopharma Ltd., priority 2021, published 2023).
# “Also recorded” adds a separate entry of the source. Read-outs that look alike come from different tables or passages of the source.
# Tests used:
# [1] = test system: advanced HCC and CPB cirrhosis; assay: Phase II randomized, double-blind, placebo-controlled study of namodenoson in advanced HCC with CPB cirrhosis (NCT02128958); format: in vivo, human
# Text: The diagnosis of HCC in subjects without underlying cirrhosis at the time of diagnosis required cytology and/or histology; for subjects with underlying cirrhosis at the time of diagnosis, HCC diagnosis was established according to the American Association for the Study of Liver Diseases practice guidelines algorithm [Marrero J. A., et al., Hepatology. 2018; 68:723-750]. For subjects who had tolerated sorafenib, ≥3 weeks of prior treatment was required, terminating at ≥2 weeks before study entry. Inclusion criteria included: ECOG PS≤2; having CPB cirrhosis (i.e., CP score 7-9); aspartate aminotransferase (AST) and alanine aminotransferase (ALT) levels ≤5 times the upper limit of normal (ULN); total bilirubin, ≤3.0 mg/dL; serum albumin, ≥2.8 g/dL; prothrombin time (PT), ≤6 s longer than control; serum creatinine, ≤2.0 mg/dL; absolute neutrophil count, […]; and platelet count, […]. Exclusion criteria included: the presence of hepatic encephalopathy; and gastrointestinal hemorrhage requiring transfusion occurring within the past 4 weeks.
# This was a multicenter, randomized, double-blind, placebo-controlled clinical trial (ClinicalTrials.gov identifier NCT02128958). The trial was conducted at 15 sites in Israel, Europe, and the United States. Subjects were enrolled by the participating centers and were randomly assigned 2:1, using a central randomization schedule generated by an independent biostatistician with no stratification prior to randomization. Patients were randomized to either namodenoson (Cl-IB-MECA) 25 mg or matching placebo, administered orally every 12 hours until discontinuation due to intolerance, withdrawal of consent, or death. Though treatment was administered in a continuous manner, the treatment period was divided into 4-week cycles for the purpose of data recording. No crossover was initially allowed; however, by protocol amendment, patients that continued with blinded treatment were offered namodenoson (25 mg twice daily) upon unblinding of the treatment assignments. All study site personnel were blinded to patients' treatment throughout the study period. The study was approved by all relevant national regulatory authorities and local Ethics Committees/Institutional Review Boards. The study was conducted in accordance with the Declaration of Helsinki, and written informed consent was obtained from all the patients.
# The primary endpoint of the study was overall survival (OS). Secondary endpoints were progression-free survival (PFS), overall response rate (ORR), disease control rate (DCR), and safety. […] 2019, 70:1262-1277]. Disease response assessment was evaluated locally by 2 independent blinded radiologists using Response Evaluation Criteria in Solid Tumors (RECIST) version 1.1 [Eisenhauer E. A., et al. Eur. J. Cancer. 2009; 45:228-247]. Tumor status was assessed at baseline and every 8 weeks thereafter by computed tomography scan or magnetic resonance imaging. Safety was monitored through assessments of AEs using the US National Cancer Institute's Common Terminology Criteria for Adverse Events (CTCAE) v4.03. Changes from baseline in vital signs, clinical laboratory parameters, electrocardiograms, physical examinations, and ECOG PS were also assessed. AFP levels were assessed at baseline and every 4 weeks thereafter, as were laboratory parameters associated with hepatic dysfunction and cirrhosis, such as serum ALT, AST, bilirubin, and albumin levels, PT, and international normalized ratio. ALBI scores were calculated from the albumin and bilirubin levels, as previously described [Johnson P. J., et al. J. Clin. Oncol. 2015; 33:550-558].
# Power calculation determined that 75 deaths, assuming a hazard ratio of 0.5, would provide 80% power for the log-rank test at a significance level of 0.05. Primary efficacy analyses were performed on the ITT population. Descriptive statistics were used to summarize patient/tumor characteristics and safety. […]
# HCC = settings: syngeneic orthotopic and xenograft models; cited from earlier work
# [2] = test system: advanced unresectable HCC; settings: cited from earlier work
# [3] = 9 patients with Child-Pugh Score 9
# [4] = 34 namodenoson-treated patients with post-baseline assessment
# [5] = n = 34 with at least 1 post-baseline assessment
# [6] = patients with Child-Pugh score 7
# [7] = patients with Child-Pugh score 8
smiles,measurement,setting,value
"CNC(=O)[C@H]1O[C@@H](n2cnc3c(NCc4cccc(I)c4)nc(Cl)nc32)[C@H](O)[C@@H]1O [namodenoson, 2-chloro-N^6-(3-iodobenzyl)-adenosine-5′-N-methyluronamide]",treatment-related deaths,[1]; 25 mg BID oral,No treatment-related deaths
same,median OS,[1]; [3],3.5 months
same,median PFS,[1]; [3],2.2 months
same,"PR achieved, number of patients",[1]; [4],3 patients
same,"PR achieved, share of patients",[1]; [4],9%
same,patients who experienced CR,[1]; [4],one patient
same,OS HR vs placebo,"[1]; Child-Pugh score 7, 95% CI 0.45-1.43, p=0.46",0.81
same,PFS HR vs placebo,"[1]; Child-Pugh score 7, 95% CI 0.51-1.55, p=0.67",0.89
same,PFS HR vs placebo,"[1]; Child-Pugh score 8, 95% CI 0.23-2.17, p=0.53",0.71
same,OS HR vs placebo,"[1]; Child-Pugh score 8, 95% CI 0.28-2.77, p=0.83",0.88
same,survival of single patient in Open Label Extension,"[1]; advanced metastatic HCC, CPB7, 25 mg orally twice a day",survived five years
same,response of single patient in Open Label Extension,"[1]; advanced metastatic HCC, CPB7, 25 mg orally twice a day for 5 years",Complete Response (CR); also recorded: complete remission of the cancer
same,mean serum albumin levels and albumin-bilirubin (ALBI) scores,[1]; in vivo,did not change significantly
same,withdrawals and dose reductions attributable to namodenoson,"[1]; in vivo, po",no patients withdrew from the study and no dose reductions were attributable to namodenoson
same,Best observed response (RECIST 1.1): CR,[1]; [5],1 (2.94%) n (%)
same,Best observed response (RECIST 1.1): PD,[1]; [5],14 (41.2%) n (%)
same,Best observed response (RECIST 1.1): PR,[1]; [5],3 (8.8%) n (%)
same,Best observed response (RECIST 1.1): SD,[1]; [5],17 (50.0%) n (%)
same,12-month OS rate,"[1]; p=0.028 vs placebo, FIG. 1: patients with Child-Pugh Score 7, 25 mg BID",44%
same,median OS,[1]; [6],6.9 months
same,median PFS,[1]; [6],3.5 months
same,OS,[1]; [7],3.3 months
same,PFS,[1]; [7],2.1 months
same,"clinical benefits of treatment (scan of chest, abdomen, pelvis)","[1]; single patient, advanced metastatic HCC, CPB7, 25 mg orally twice a day","disappearance of ascites, normal liver function, and the disappearance of peritoneal carcinomatosis"
same,progression-free survival (PFS) superiority over placebo,[1]; whole study population,no superiority
same,median OS,"[1]; whole study population, 25 mg BID oral",4.1 months
same,OS hazard ratio [HR] vs placebo,"[1]; whole study population, 95% CI 0.49-1.38, p=0.46",0.82
same,effect towards HCC,HCC,induces an apoptotic effect
same,Median overall survival (OS),[2]; CPB patients (28%),8.1 months
same,safety and tolerability,[2]; in vivo,safe and well-tolerated
same,Median overall survival (OS),"[2]; whole study population, 67% failed prior sorafenib",7.8 months
